# In US8975280B2, “Deoxynojirimycin and D-arabinitol analogs and methods of using” (The Chancellor, Masters and Scholars of The University of …, priority 2006, dated 2015):
# Like-named read-outs stand apart in the source and are kept apart here.
# Experiments:
# [1] = target: T1, α-glucosidase I (Rattus norvegicus, UniProt O88941); assay: In vitro inhibition of purified α-glucosidase I, 2-AA-labeled FOS substrates, HPLC; format: biochemical
# T1 construct: Purified α-glucosidase I and II were purified from rat liver by known methods; from tissue; host or cells: rat liver
# T1 sequence (O88941 1-834): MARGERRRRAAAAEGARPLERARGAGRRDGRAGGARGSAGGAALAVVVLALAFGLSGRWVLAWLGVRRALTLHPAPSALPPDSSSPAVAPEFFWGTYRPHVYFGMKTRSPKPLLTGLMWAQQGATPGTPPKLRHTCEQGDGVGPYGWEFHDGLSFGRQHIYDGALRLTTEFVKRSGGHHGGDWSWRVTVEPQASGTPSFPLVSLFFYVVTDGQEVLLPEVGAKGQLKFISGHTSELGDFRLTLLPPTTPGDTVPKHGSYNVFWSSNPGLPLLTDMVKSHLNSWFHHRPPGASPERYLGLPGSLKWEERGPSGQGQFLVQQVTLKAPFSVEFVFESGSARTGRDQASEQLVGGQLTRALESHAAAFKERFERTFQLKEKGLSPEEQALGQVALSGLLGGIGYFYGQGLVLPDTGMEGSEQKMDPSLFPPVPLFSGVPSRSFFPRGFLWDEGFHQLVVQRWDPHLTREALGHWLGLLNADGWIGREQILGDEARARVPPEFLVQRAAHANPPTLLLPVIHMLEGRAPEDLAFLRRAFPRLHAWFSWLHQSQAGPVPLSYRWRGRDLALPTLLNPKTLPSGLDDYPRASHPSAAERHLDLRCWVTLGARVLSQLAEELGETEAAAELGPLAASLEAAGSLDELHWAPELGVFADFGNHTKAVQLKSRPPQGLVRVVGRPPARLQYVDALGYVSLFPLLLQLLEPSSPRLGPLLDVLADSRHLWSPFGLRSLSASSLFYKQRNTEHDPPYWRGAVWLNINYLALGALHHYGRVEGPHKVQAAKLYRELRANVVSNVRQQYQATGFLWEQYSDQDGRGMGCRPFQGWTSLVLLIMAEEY
# Protocol: (§1) All chromatography was performed at 30° C. The first solvent, solvent A, was acetonitrile and the second solvent, solvent B, was Milli-Q water. […] Samples (<50 μl) were injected in Milli-Q water/acetonitrile (3/7, v/v). All chromatography was controlled, including data collection and processing, using Waters Empower software. Glucose units were determined, following comparison with a 2-AA-labeled glucose oligomer ladder (derived from a partial hydrolysate of dextran) external standard using Peak Time software (developed in-house).
# Purified α-glucosidase I and II were purified from rat liver by known methods. […] 2-AA-labeled FOS were isolated and purified as substrates for either α-glucosidase I or II. Fluorescently-labeled substrates Glc1Man5GlcNAc1 (G1M5N), Glc2Man5GlcNAc1 (G2M5N), Glc3Man5GlcNAc1 (G3M5N) and Glc3Man9GlcNAc, (G3M9N2) were added to separate 1.5 ml centrifuge tubes with varying concentrations of imino sugar and dried under vacuum. […] Similarly, α-glucosidase II was incubated for 2 hours with G2M5N and 20 minutes with G1M5N. […] The reactions were stopped by the addition of 30 μl acetonitrile.
# [2] = target: T2, α-glucosidase II (Rattus norvegicus, UniProt A0A8I6GFL3); assay: In vitro inhibition of purified α-glucosidase II, (a) and (b) activities, 2-AA-labeled FOS substrates, HPLC; format: biochemical
# T2 construct: Purified α-glucosidase I and II were purified from rat liver by known methods; from tissue; host or cells: rat liver
# Protocol: as §1
# Purified α-glucosidase I and II were purified from rat liver by known methods. […] 2-AA-labeled FOS were isolated and purified as substrates for either α-glucosidase I or II. […] […] […] […] The reactions were stopped by the addition of 30 μl acetonitrile.
# [3] = nonamannose substrate Glc3Man9GlcNAc1, read-out: α-Glucosidase I Glc3Man9GlcNAc1 IC50
# [4] = pentamannose substrate Glc3Man5GlcNAc1, read-out: α-Glucosidase I Glc3Man5GlcNAc1 IC50
# [5] = pentamannose substrate Glc1Man5GlcNAc1, read-out: α-Glucosidase II (b) Glc1Man5GlcNAc1 IC50
# [6] = pentamannose substrate Glc2Man5GlcNAc1, read-out: α-Glucosidase II (a) Glc2Man5GlcNAc1 IC50
# T2 sequence (A0A8I6ADW9 1-525 partner): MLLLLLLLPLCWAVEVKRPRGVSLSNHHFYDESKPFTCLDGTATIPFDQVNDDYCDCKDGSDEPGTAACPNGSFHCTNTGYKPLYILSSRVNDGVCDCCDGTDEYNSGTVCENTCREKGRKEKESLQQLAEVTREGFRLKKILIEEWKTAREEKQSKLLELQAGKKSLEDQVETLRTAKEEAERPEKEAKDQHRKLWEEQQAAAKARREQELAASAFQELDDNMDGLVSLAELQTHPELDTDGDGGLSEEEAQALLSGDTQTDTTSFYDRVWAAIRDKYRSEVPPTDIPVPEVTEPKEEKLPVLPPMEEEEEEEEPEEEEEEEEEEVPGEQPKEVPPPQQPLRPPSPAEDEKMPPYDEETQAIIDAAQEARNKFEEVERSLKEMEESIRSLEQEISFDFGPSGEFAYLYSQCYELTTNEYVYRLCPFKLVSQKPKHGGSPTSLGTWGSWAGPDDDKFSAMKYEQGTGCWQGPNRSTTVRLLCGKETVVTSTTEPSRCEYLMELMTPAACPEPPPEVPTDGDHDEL
SMILES,"IC50 [1, 3] [nM]","IC50 [1, 4] [nM]","IC50 [2, 5] [nM]","IC50 [2, 6] [nM]","IC50 ([1]; heptamannose substrate Glc3Man7GlcNAc1, read-out: α-Glucosidase I Glc3Man7GlcNAc1 IC50) [nM]","IC50 ([2]; heptamannose substrate Glc1Man7GlcNAc1, read-out: α-Glucosidase II (b) Glc1Man7GlcNAc1 IC50) [nM]","IC50 ([2]; heptamannose substrate Glc2Man7GlcNAc1, read-out: α-Glucosidase II (a) Glc2Man7GlcNAc1 IC50) [nM]"
"CCCCN1C[C@H](O)[C@@H](O)[C@H](O)[C@H]1CO [NB-DNJ, N-butyl-DNJ, reference compound]",590 ± 80,680 ± 150,53000 ± 16600,10800 ± 1100,,,
"O=[N+]([O-])c1ccc(NCCCCCCN2C[C@H](O)[C@@H](O)[C@H](O)[C@H]2CO)c([N+](=O)[O-])c1 [NDP-DNJ, N—(N′-{2,4-dinitrophenyl)-6-aminohexyl)-deoxynojirimycin]",54 ± 20,108 ± 20,1900 ± 400,6900 ± 3400,45 ± 3,10200 ± 20,18100 ± 1600
